Results published in PubChem BioAssay AID1695 (PCMD, 2009).
The source made the active and inactive calls. No rule for the calls is given here.

Target: dTDP-4-dehydrorhamnose reductase (Mycobacterium tuberculosis (strain ATCC 25618 / H37Rv)) + dTDP-4-dehydrorhamnose 3,5-epimerase (Mycobacterium tuberculosis (strain ATCC 25618 / H37Rv)) (UniProt P9WH09+P9WH11)
Assay: Coupled RmlC and RmlD enzyme inhibition, Mycobacterium tuberculosis, dose response confirmation (AID 1695)
Settings: coupled RmlC/RmlD enzyme assay

dTDP-4-dehydrorhamnose reductase (Mycobacterium tuberculosis (strain ATCC 25618 / H37Rv)) + dTDP-4-dehydrorhamnose 3,5-epimerase (Mycobacterium tuberculosis (strain ATCC 25618 / H37Rv)), sequence (P9WH09 whole entry, looked up): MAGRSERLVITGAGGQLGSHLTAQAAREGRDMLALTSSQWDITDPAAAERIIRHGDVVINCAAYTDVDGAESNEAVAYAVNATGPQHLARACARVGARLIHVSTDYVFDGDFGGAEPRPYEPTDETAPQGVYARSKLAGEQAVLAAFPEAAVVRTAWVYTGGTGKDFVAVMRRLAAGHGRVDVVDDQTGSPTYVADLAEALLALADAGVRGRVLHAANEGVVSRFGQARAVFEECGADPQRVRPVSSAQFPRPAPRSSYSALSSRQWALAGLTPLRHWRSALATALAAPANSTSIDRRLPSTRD
dTDP-4-dehydrorhamnose reductase (Mycobacterium tuberculosis (strain ATCC 25618 / H37Rv)) + dTDP-4-dehydrorhamnose 3,5-epimerase (Mycobacterium tuberculosis (strain ATCC 25618 / H37Rv)), sequence (P9WH11 whole entry, looked up): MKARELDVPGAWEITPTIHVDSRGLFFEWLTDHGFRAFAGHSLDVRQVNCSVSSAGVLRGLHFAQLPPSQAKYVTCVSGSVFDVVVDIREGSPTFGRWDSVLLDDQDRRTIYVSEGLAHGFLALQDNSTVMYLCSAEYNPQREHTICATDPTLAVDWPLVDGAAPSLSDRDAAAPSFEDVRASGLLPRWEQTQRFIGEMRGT

Compound	IC50
CCOC(=O)C1=C(CSc2nc(-c3ccccc3)ccc2C#N)OC(N)=C(C#N)C1c1cccnc1 (stereo unspecified)	inactive
CC1=CC(c2ccccc2)n2nc(NS(=O)(=O)c3ccc(C)cc3)nc2N1 (stereo unspecified)	inactive
C=CCOC(=O)C1=C(C)NC(SCC(=O)NC(=O)OCC)=C(C#N)C1c1cccnc1 (stereo unspecified)	inactive
CC1=C(C#N)C(c2cccnc2)C2=C(CC(C)(C)CC2=O)N1 (stereo unspecified)	inactive
COc1ccccc1N=c1oc2cc(O)ccc2cc1C(N)=O	inactive
O=C1CCC(=O)N1c1nc2nc(-c3ccccc3)cc(-c3ccccc3)n2n1	inactive
COc1ccc(OC)c(/C=N/NC(=O)CC2C(=O)NN=C2C)c1 (stereo unspecified)	inactive
COC(=O)/C(=C/Nc1cccc2ccccc12)[N+](=O)[O-]	inactive
CC1=C(C#N)C(c2cccnc2)C2=C(CCCC2=O)N1 (stereo unspecified)	inactive
CCCCCCc1cc2cc(-c3nnc(-c4ccccc4OC)o3)c(=O)oc2cc1O	inactive
COC(=O)C1=CNC=C(C(=O)OC)C1c1cccc(OC)c1	inactive
